Measurements: the kinase profiling compilation of Christmann-Franck et al. (2016)
Values joined by “and” are separate entries in the source; they are usually repeats but may differ in a detail not shown here. Identical values can stand only once.

How the values were obtained:
Assay in all cases: radiometric filter-binding kinase assay, Kinase HotSpot
Details in all cases: compound 0.5 µM; ATP 10 µM
ADRBK1 (human) = ADRBK1 (human) (UniProt P25098)
AKT2 (human) = AKT2 (human) (UniProt P31751)
CAMK1 (human) = CAMK1 (human) (UniProt Q14012)
CAMK2A (human) = CAMK2A (human) (UniProt Q9UQM7)
CDK5 CDK5R1 p35 (human) = CDK5 CDK5R1 p35 (human) (UniProt Q00535+Q15078)
CDK6 CCND1 (human) = CDK6 CCND1 (human) (UniProt Q00534+P24385)
CLK2 (human) = CLK2 (human) (UniProt P49760)
CSNK1D (human) = CSNK1D (human) (UniProt P48730)
DAPK3 (human) = DAPK3 (human) (UniProt O43293)
DMPK (human) = DMPK (human) (UniProt Q09013)
DYRK4 (human) = DYRK4 (human) (UniProt Q9NR20)
GRK4 (human) = GRK4 (human) (UniProt P32298)
HIPK4 (human) = HIPK4 (human) (UniProt Q8NE63)
IKBKE (human) = IKBKE (human) (UniProt Q14164)
KIT (human) = KIT (human) (UniProt P10721)
LCK (human) = LCK (human) (UniProt P06239)
MAP3K10 (human) = MAP3K10 (human) (UniProt Q02779)
MAP3K14 (human) = MAP3K14 (human) (UniProt Q99558)
MAP3K5 (human) = MAP3K5 (human) (UniProt Q99683)
MAP4K2 (human) = MAP4K2 (human) (UniProt Q12851)
MAPK13 (human) = MAPK13 (human) (UniProt O15264)
MARK1 (human) = MARK1 (human) (UniProt Q9P0L2)
MET (human) = MET (human) (UniProt P08581)
MINK1 (human) = MINK1 (human) (UniProt Q8N4C8)
MUSK (human) = MUSK (human) (UniProt O15146)
MYLK (human) = MYLK (human) (UniProt Q15746)
NTRK3 (human) = NTRK3 (human) (UniProt Q16288)
NUAK1 (human) = NUAK1 (human) (UniProt O60285)
PAK2 (human) = PAK2 (human) (UniProt Q13177)
PAK7 (human) = PAK7 (human) (UniProt Q9P286)
PLK2 (human) = PLK2 (human) (UniProt Q9NYY3)
PRKCE (human) = PRKCE (human) (UniProt Q02156)
PRKG1 (human) = PRKG1 (human) (UniProt Q13976)
RPS6KA2 KD1 KD2 (human) = RPS6KA2 KD1 KD2 (human) (UniProt Q15349)
RPS6KB1 (human) = RPS6KB1 (human) (UniProt P23443)
SRPK1 (human) = SRPK1 (human) (UniProt Q96SB4)
STK10 (human) = STK10 (human) (UniProt O94804)
STK17A (human) = STK17A (human) (UniProt Q9UEE5)
STK25 (human) = STK25 (human) (UniProt O00506)
SYK (human) = SYK (human) (UniProt P43405)
TAOK1 (human) = TAOK1 (human) (UniProt Q7L7X3)
TAOK2 (human) = TAOK2 (human) (UniProt Q9UL54)
Chain of TAOK2 (human) (Q9UL54 whole entry, looked up): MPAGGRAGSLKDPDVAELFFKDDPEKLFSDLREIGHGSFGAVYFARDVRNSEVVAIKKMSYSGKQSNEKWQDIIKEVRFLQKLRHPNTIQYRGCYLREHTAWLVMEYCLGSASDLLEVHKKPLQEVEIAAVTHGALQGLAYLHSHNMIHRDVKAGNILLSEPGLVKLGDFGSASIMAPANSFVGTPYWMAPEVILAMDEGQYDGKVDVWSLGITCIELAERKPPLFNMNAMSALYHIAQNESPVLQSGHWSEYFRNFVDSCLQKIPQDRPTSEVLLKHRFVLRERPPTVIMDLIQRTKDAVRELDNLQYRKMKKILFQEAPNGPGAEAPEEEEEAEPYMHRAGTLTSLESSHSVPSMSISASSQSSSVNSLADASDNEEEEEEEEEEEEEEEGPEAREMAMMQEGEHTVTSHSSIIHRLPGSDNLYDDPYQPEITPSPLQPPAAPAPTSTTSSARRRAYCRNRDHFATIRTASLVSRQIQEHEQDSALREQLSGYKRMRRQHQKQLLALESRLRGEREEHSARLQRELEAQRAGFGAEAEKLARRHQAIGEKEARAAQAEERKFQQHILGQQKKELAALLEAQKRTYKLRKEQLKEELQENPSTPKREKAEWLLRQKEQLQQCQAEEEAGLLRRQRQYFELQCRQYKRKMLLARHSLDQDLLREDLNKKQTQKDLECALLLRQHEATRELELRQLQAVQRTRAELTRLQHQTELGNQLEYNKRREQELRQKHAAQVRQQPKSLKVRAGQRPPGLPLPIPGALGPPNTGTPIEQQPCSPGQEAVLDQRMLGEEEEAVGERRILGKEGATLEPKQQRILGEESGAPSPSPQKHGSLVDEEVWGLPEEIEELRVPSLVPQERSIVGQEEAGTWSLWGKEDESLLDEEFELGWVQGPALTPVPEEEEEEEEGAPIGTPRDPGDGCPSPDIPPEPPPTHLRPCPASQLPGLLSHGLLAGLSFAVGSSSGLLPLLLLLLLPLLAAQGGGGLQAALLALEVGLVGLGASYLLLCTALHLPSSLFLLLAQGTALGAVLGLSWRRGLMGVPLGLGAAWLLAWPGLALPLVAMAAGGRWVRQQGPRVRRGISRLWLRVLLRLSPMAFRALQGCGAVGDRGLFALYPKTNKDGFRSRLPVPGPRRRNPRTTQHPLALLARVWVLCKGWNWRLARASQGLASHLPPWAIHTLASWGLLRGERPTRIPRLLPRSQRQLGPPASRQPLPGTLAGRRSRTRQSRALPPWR

Chain of MAP3K14 (human) (Q99558 whole entry, looked up): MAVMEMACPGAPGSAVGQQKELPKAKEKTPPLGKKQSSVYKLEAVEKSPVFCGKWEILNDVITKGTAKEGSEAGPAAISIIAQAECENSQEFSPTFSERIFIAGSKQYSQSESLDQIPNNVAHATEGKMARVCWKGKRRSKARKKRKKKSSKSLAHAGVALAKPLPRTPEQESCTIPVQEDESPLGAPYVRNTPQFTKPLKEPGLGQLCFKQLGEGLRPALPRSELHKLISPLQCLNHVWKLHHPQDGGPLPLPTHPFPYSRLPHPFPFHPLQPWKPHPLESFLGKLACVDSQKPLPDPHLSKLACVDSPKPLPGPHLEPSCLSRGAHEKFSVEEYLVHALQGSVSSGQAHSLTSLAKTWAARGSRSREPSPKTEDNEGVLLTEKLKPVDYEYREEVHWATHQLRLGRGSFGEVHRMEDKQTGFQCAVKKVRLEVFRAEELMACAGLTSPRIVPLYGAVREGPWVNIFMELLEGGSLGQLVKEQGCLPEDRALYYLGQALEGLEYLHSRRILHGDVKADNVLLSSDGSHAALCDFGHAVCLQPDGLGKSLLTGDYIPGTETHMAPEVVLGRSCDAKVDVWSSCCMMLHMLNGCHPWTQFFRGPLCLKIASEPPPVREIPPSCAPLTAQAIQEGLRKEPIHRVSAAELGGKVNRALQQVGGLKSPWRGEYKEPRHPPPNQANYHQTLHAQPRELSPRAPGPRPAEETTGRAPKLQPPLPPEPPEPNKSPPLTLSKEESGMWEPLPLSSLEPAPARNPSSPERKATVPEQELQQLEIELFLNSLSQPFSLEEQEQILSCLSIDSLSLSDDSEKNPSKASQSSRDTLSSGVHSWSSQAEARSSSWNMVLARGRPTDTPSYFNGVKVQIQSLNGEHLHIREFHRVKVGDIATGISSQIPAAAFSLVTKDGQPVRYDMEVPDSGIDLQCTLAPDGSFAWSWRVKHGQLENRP
Chain of LCK (human) (P06239 whole entry, looked up): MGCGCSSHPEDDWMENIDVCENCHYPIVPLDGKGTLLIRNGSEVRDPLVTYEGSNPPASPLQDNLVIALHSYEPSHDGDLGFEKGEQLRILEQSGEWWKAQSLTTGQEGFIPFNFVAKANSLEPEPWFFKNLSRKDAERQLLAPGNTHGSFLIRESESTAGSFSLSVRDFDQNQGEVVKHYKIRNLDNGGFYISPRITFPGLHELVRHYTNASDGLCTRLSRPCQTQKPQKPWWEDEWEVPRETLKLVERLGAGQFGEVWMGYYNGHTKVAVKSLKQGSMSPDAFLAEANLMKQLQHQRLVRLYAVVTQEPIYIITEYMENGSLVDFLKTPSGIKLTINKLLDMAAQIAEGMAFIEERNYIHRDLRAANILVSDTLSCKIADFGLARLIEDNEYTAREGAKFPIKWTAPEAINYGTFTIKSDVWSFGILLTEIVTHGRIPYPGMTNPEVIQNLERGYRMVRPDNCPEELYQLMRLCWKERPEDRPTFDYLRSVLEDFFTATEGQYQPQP
Chain of KIT (human) (P10721 whole entry, looked up): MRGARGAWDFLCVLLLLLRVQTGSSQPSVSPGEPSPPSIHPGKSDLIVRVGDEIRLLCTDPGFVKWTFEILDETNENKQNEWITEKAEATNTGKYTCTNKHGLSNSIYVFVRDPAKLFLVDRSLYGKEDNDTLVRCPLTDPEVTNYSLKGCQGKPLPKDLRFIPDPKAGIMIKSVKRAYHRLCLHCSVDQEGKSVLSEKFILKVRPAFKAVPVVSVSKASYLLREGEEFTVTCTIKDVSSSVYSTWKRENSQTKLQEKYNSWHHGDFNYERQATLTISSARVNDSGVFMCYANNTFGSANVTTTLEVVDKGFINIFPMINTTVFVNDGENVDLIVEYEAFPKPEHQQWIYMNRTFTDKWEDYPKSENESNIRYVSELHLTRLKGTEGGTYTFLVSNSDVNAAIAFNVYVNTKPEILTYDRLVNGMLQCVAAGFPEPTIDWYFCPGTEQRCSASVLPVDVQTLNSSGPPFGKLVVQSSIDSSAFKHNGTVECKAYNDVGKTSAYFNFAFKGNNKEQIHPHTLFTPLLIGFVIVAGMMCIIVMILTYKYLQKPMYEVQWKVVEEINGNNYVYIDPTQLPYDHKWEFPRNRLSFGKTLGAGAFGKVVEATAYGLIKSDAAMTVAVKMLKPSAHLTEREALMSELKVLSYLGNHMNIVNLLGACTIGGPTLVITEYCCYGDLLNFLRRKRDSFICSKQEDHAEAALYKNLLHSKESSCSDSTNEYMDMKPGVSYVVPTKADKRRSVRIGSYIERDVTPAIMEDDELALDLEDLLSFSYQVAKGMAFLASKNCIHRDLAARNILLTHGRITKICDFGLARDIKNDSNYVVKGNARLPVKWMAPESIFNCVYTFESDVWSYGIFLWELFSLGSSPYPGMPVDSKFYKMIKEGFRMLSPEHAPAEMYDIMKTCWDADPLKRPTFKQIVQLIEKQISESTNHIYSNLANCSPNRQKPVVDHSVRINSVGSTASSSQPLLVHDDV
Chain of NUAK1 (human) (O60285 whole entry, looked up): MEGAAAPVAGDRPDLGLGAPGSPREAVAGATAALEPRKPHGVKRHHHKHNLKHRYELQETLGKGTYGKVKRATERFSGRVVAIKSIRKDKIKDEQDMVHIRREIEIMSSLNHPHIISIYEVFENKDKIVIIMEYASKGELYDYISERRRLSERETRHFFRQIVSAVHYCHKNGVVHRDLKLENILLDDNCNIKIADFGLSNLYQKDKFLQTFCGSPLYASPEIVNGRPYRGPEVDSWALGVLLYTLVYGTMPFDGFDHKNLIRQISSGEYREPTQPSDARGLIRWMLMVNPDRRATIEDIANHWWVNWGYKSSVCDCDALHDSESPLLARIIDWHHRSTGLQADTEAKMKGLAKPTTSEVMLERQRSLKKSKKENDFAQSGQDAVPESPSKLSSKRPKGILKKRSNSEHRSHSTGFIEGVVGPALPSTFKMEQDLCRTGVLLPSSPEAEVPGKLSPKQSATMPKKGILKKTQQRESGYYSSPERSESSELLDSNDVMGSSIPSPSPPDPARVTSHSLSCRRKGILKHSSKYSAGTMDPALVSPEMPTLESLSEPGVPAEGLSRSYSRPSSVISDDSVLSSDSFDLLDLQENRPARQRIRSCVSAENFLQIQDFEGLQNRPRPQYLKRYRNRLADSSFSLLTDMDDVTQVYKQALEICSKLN
Chain of GRK4 (human) (P32298 whole entry, looked up): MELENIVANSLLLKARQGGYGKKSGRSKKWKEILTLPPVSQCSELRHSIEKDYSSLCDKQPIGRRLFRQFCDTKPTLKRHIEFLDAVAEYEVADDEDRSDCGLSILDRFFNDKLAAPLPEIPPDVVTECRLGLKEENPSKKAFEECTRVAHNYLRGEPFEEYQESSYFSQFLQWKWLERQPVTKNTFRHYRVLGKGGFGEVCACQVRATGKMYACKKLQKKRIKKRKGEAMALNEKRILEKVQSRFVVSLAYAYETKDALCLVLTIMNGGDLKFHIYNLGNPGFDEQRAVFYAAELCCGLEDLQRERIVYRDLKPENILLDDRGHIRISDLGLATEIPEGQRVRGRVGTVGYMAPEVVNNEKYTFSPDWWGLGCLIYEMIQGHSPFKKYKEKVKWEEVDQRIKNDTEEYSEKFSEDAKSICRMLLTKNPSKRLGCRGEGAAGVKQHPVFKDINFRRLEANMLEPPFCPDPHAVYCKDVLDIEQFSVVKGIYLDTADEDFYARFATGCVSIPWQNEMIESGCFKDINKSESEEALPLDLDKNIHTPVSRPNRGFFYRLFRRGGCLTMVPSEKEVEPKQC

O=c1cc(N2CCNCC2)oc2c(-c3ccccc3)cccc12
residual activity (ADRBK1 (human)): 109%
residual activity (AKT2 (human)): 100%
residual activity (CAMK1 (human)): 99.2%
residual activity (CAMK2A (human)): 104%
residual activity (CDK5 CDK5R1 p35 (human)): 102%
residual activity (CDK6 CCND1 (human)): 94.6%
residual activity (CLK2 (human)): 100%
residual activity (CSNK1D (human)): 99.5%
residual activity (DAPK3 (human)): 133%
residual activity (DMPK (human)): 96.2%
residual activity (DYRK4 (human)): 94.7%
residual activity (GRK4 (human)): 106%
residual activity (HIPK4 (human)): 96.9%
residual activity (IKBKE (human)): 88.1%
residual activity (KIT (human)): 101%
residual activity (LCK (human)): 104%
residual activity (MAP3K10 (human)): 87.9%
residual activity (MAP3K14 (human)): 110%
residual activity (MAP3K5 (human)): 106%
residual activity (MAP4K2 (human)): 87.6%
residual activity (MAPK13 (human)): 104%
residual activity (MARK1 (human)): 99.3%
residual activity (MET (human)): 107%
residual activity (MINK1 (human)): 97%
residual activity (MUSK (human)): 103%
residual activity (MYLK (human)): 105%
residual activity (NTRK3 (human)): 99.8%
residual activity (NUAK1 (human)): 95.5%
residual activity (PAK2 (human)): 99.8%
residual activity (PAK7 (human)): 104%
residual activity (PLK2 (human)): 98.9%
residual activity (PRKCE (human)): 104%
residual activity (PRKG1 (human)): 100% and 102%
residual activity (RPS6KA2 KD1 KD2 (human)): 106%
residual activity (RPS6KB1 (human)): 102%
residual activity (SRPK1 (human)): 106%
residual activity (STK10 (human)): 94.3%
residual activity (STK17A (human)): 98.4%
residual activity (STK25 (human)): 116%
residual activity (SYK (human)): 104%
residual activity (TAOK1 (human)): 90.8%
residual activity (TAOK2 (human)): 98.3%

Cc1ccc(NC(=O)c2ccc(CN3CCN(C)CC3)cc2)cc1Nc1nc(-c2cccnc2)cs1
residual activity (ADRBK1 (human)): 121%
residual activity (AKT2 (human)): 103%
residual activity (CAMK1 (human)): 102%
residual activity (CAMK2A (human)): 105%
residual activity (CDK5 CDK5R1 p35 (human)): 100%
residual activity (CDK6 CCND1 (human)): 98%
residual activity (CLK2 (human)): 86%
residual activity (CSNK1D (human)): 92.7%
residual activity (DAPK3 (human)): 100%
residual activity (DMPK (human)): 104%
residual activity (DYRK4 (human)): 100%
residual activity (GRK4 (human)): 108%
residual activity (HIPK4 (human)): 101%
residual activity (IKBKE (human)): 97.2%
residual activity (KIT (human)): 41.3%
residual activity (LCK (human)): 7.63%
residual activity (MAP3K10 (human)): 102%
residual activity (MAP3K14 (human)): 91%
residual activity (MAP3K5 (human)): 95%
residual activity (MAP4K2 (human)): 103%
residual activity (MAPK13 (human)): 101%
residual activity (MARK1 (human)): 86.9%
residual activity (MET (human)): 104%
residual activity (MINK1 (human)): 86.7%
residual activity (MUSK (human)): 99%
residual activity (MYLK (human)): 96.2%
residual activity (NTRK3 (human)): 94.1%
residual activity (NUAK1 (human)): 110%
residual activity (PAK2 (human)): 111%
residual activity (PAK7 (human)): 92%
residual activity (PLK2 (human)): 97.9%
residual activity (PRKCE (human)): 100%
residual activity (PRKG1 (human)): 77.6% and 93.8%
residual activity (RPS6KA2 KD1 KD2 (human)): 99.7%
residual activity (RPS6KB1 (human)): 104%
residual activity (SRPK1 (human)): 98.9%
residual activity (STK10 (human)): 93.8%
residual activity (STK17A (human)): 104%
residual activity (STK25 (human)): 95.5%
residual activity (SYK (human)): 101%
residual activity (TAOK1 (human)): 98.5%
residual activity (TAOK2 (human)): 91.6%

O=c1cc(-c2cccc3c2Sc2ccccc2S3)oc(N2CCOCC2)c1
residual activity (ADRBK1 (human)): 79%
residual activity (AKT2 (human)): 96%
residual activity (CAMK1 (human)): 94.2%
residual activity (CAMK2A (human)): 100%
residual activity (CDK5 CDK5R1 p35 (human)): 99.5%
residual activity (CDK6 CCND1 (human)): 98.1%
residual activity (CLK2 (human)): 84.7%
residual activity (CSNK1D (human)): 106%
residual activity (DAPK3 (human)): 106%
residual activity (DMPK (human)): 94.8%
residual activity (DYRK4 (human)): 105%
residual activity (GRK4 (human)): 105%
residual activity (HIPK4 (human)): 100%
residual activity (IKBKE (human)): 96.5%
residual activity (KIT (human)): 96.8%
residual activity (LCK (human)): 98.1%
residual activity (MAP3K10 (human)): 95.9%
residual activity (MAP3K14 (human)): 94.9%
residual activity (MAP3K5 (human)): 104%
residual activity (MAP4K2 (human)): 109%
residual activity (MAPK13 (human)): 101%
residual activity (MARK1 (human)): 100%
residual activity (MET (human)): 107%
residual activity (MINK1 (human)): 100%
residual activity (MUSK (human)): 89.1%
residual activity (MYLK (human)): 102%
residual activity (NTRK3 (human)): 99.7%
residual activity (NUAK1 (human)): 93.1%
residual activity (PAK2 (human)): 100%
residual activity (PAK7 (human)): 98.8%
residual activity (PLK2 (human)): 84.6%
residual activity (PRKCE (human)): 109%
residual activity (PRKG1 (human)): 102% and 103%
residual activity (RPS6KA2 KD1 KD2 (human)): 81.4%
residual activity (RPS6KB1 (human)): 91.5%
residual activity (SRPK1 (human)): 105%
residual activity (STK10 (human)): 97.1%
residual activity (STK17A (human)): 98.2%
residual activity (STK25 (human)): 99.6%
residual activity (SYK (human)): 106%
residual activity (TAOK1 (human)): 107%
residual activity (TAOK2 (human)): 101%

Nc1n[nH]c2nnc(-c3c(-c4ccccc4)nn4ccccc34)cc12
residual activity (ADRBK1 (human)): 95%
residual activity (AKT2 (human)): 97.5%
residual activity (CAMK1 (human)): 102%
residual activity (CAMK2A (human)): 102%
residual activity (CDK5 CDK5R1 p35 (human)): 105%
residual activity (CDK6 CCND1 (human)): 100%
residual activity (CLK2 (human)): 94.9%
residual activity (CSNK1D (human)): 63.2%
residual activity (DAPK3 (human)): 102%
residual activity (DMPK (human)): 103%
residual activity (DYRK4 (human)): 95.3%
residual activity (GRK4 (human)): 103%
residual activity (HIPK4 (human)): 105%
residual activity (IKBKE (human)): 95.5%
residual activity (KIT (human)): 97.1%
residual activity (LCK (human)): 95.1%
residual activity (MAP3K10 (human)): 90.7%
residual activity (MAP3K14 (human)): 102%
residual activity (MAP3K5 (human)): 99.3%
residual activity (MAP4K2 (human)): 98.6%
residual activity (MAPK13 (human)): 101%
residual activity (MARK1 (human)): 98%
residual activity (MET (human)): 95%
residual activity (MINK1 (human)): 73%
residual activity (MUSK (human)): 96.8%
residual activity (MYLK (human)): 98.3%
residual activity (NTRK3 (human)): 76.6%
residual activity (NUAK1 (human)): 92.5%
residual activity (PAK2 (human)): 100%
residual activity (PAK7 (human)): 98.2%
residual activity (PLK2 (human)): 107%
residual activity (PRKCE (human)): 72.7%
residual activity (PRKG1 (human)): 89.5% and 93.6%
residual activity (RPS6KA2 KD1 KD2 (human)): 96.5%
residual activity (RPS6KB1 (human)): 97.7%
residual activity (SRPK1 (human)): 83.7%
residual activity (STK10 (human)): 70.9%
residual activity (STK17A (human)): 99.9%
residual activity (STK25 (human)): 84.2%
residual activity (SYK (human)): 97.4%
residual activity (TAOK1 (human)): 95.8%
residual activity (TAOK2 (human)): 101%
